Test results published in patent publication US12552783B2, “Modulators of proteolysis and associated methods of use” (Arvinas Operations, Inc., priority 2018, dated 2026).

Biological target: KRas (Homo sapiens, UniProt P01116, G12C)
Assay: KRas degradation in NCI-H2030 cells by Western blot, normalized to GAPDH (data of Table 14)
Format: cell-based
Design: host or cells: NCI-H2030
Conditions: for Percent Degradation at Indicated Concentration (μM): H2030; for Dmax: NCI-H2030
Outline: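 Readout: GAPDH-normalized KRas immunoblot signal, expressed as percent degradation versus 0.1% DMSO vehicle. Treatment: 0.3, 1, 3 μM after 24 h starvation; 24 h (VHL-based) or 72 h (others).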

| Percent Degradation at Indicated Concentration (μM) (0.3 μM) | Percent Degradation at Indicated Concentration (μM) (1 μM) | Percent Degradation at Indicated Concentration (μM) (3 μM) | Dmax [%] | Percent Degradation at Indicated Concentration (μM): 0.3 (H2030 cells, 0.3 μM) | Percent Degradation at Indicated Concentration (μM): 1 (H2030 cells, 1 μM) | Percent Degradation at Indicated Concentration (μM): 3 (H2030 cells, 3 μM) | Dmax (H2030 cells) [%] | SMILES |
| --- | --- | --- | --- | --- | --- | --- | --- | --- |
| C (Percent Degradation: C ≤ 35) | C (Percent Degradation: C ≤ 35) | C (Percent Degradation: C ≤ 35) | ≤ 35 | – | – | – | – | C=CC(=O)N1CCN(c2nc(NCCC(=O)N(C)CCOCCOCCNc3cccc4c3C(=O)N(C3CCC(=O)NC3=O)C4=O)nc3c(F)c(-c4c(O)cccc4F)c(Cl)cc23)CC1 [compound 111, 3-(((S)-4-(4-acryloylpiperazin-1-yl)-6-chloro-8-fluoro-7-(2-fluoro-6-hydroxyphenyl)quinazolin-2-yl)amino)-N-(2-(2-(2-((2-(2,6-dioxopiperidin-3-yl)-1,3-dioxoisoindolin-4-yl)amino)ethoxy)ethoxy)ethyl)-N-methylpropanamide] |
| – | – | – | – | C (C ≤ 35) | C (C ≤ 35) | C (C ≤ 35) | ≤ 35 | CCC(=O)N1CCN(c2nc(NCCC(=O)N(C)CCOCCNc3cccc4c3C(=O)N(C3CCC(=O)NC3=O)C4=O)nc3c(F)c(-c4cc(O)cc5ccccc45)c(Cl)cc23)CC1 (stereo not shown) [compound 42, 3-((6-chloro-8-fluoro-7-(3-hydroxynaphthalen-1-yl)-4-(4-propionylpiperazin-1-yl)quinazolin-2-yl)amino)-N-(2-(2-((2-(2,6-dioxopiperidin-3-yl)-1,3-dioxoisoindolin-4-yl)amino)ethoxy)ethyl)-N-methylpropanamide] |
| C (Percent Degradation: C ≤ 35) | C (Percent Degradation: C ≤ 35) | C (Percent Degradation: C ≤ 35) | ≤ 35 | – | – | – | – | C=CC(=O)N1CCN(c2nc(NCCC(=O)N(C)CCOCCOCCOCCOc3ccc4c(c3)C(=O)N(C3CCC(=O)NC3=O)C4=O)nc3c(F)c(-c4c(O)cccc4F)c(Cl)cc23)CC1 [compound 73, 3-(((S)-4-(4-acryloylpiperazin-1-yl)-6-chloro-8-fluoro-7-(2-fluoro-6-hydroxyphenyl)quinazolin-2-yl)amino)-N-(2-(2-(2-(2-((2-(2,6-dioxopiperidin-3-yl)-1,3-dioxoisoindolin-5-yl)oxy)ethoxy)ethoxy)ethoxy)ethyl)-N-methylpropanamide] |
| – | – | – | – | C (C ≤ 35) | C (C ≤ 35) | C (C ≤ 35) | ≤ 35 | C=CC(=O)N1CCN(c2nc(NCCC(=O)N(C)CCOCCOCCOCCOCCOc3cc(-c4scnc4C)ccc3CNC(=O)[C@@H]3C[C@@H](O)CN3C(=O)[C@@H](c3cc(C)no3)C(C)C)nc3c(F)c(-c4cc(O)cc5ccccc45)c(Cl)cc23)CC1 [compound 345, (2S,4R)-N-(2-((18-((4-(4-acryloylpiperazin-1-yl)-6-chloro-8-fluoro-7-(3-hydroxynaphthalen-1-yl)quinazolin-2-yl)amino)-15-methyl-16-oxo-3,6,9,12-tetraoxa-15-azaoctadecyl)oxy)-4-(4-methylthiazol-5-yl)benzyl)-4-hydroxy-1-((R)-3-methyl-2-(3-methylisoxazol-5-yl)butanoyl)pyrrolidine-2-carboxamide] |
| C (Percent Degradation: C ≤ 35) | C (Percent Degradation: C ≤ 35) | C (Percent Degradation: C ≤ 35) | ≤ 35 | – | – | – | – | C=CC(=O)N1CCN(c2nc(NCCC(=O)N(C)CCOc3cc(-c4scnc4C)ccc3CNC(=O)[C@@H]3C[C@@H](O)CN3C(=O)[C@@H](c3cc(C)no3)C(C)C)nc3c(F)c(-c4cc(O)cc5ccccc45)c(Cl)cc23)CC1 [compound 337] |
| C (Percent Degradation: C ≤ 35) | C (Percent Degradation: C ≤ 35) | C (Percent Degradation: C ≤ 35) | ≤ 35 | – | – | – | – | CN(C)C(=O)CCNc1nc(N2CCN(C(=O)/C=C/CCOCCOc3ccc4c(c3)C(=O)N(C3CCC(=O)NC3=O)C4=O)CC2)c2cc(Cl)c(-c3cc(O)cc4ccccc34)c(F)c2n1 (stereo not shown) [compound 172, (E)-3-((6-chloro-4-(4-(5-(2-((2-(2,6-dioxopiperidin-3-yl)-1,3-dioxoisoindolin-5-yl)oxy)ethoxy)pent-2-enoyl)piperazin-1-yl)-8-fluoro-7-(3-hydroxynaphthalen-1-yl)quinazolin-2-yl)amino)-N,N-dimethylpropanamide] |
| C (Percent Degradation: C ≤ 35) | C (Percent Degradation: C ≤ 35) | C (Percent Degradation: C ≤ 35) | ≤ 35 | – | – | – | – | C=CC(=O)N1CCN(c2nc(Nc3ccc(OCCOCCOCCOCC(=O)N[C@H](C(=O)N4C[C@H](O)C[C@H]4C(=O)N[C@@H](C)c4ccc(-c5scnc5C)cc4)C(C)(C)C)cc3)nc3c(F)c(-c4cc(O)cc5ccccc45)c(Cl)cc23)CC1 [compound 483, (2S,4R)-1-((2S)-14-(4-((4-(4-acryloylpiperazin-1-yl)-6-chloro-8-fluoro-7-(3-hydroxynaphthalen-1-yl)quinazolin-2-yl)amino)phenoxy)-2-(tert-butyl)-4-oxo-6,9,12-trioxa-3-azatetradecanoyl)-4-hydroxy-N-((S)-1-(4-(4-methylthiazol-5-yl)phenyl)ethyl)pyrrolidine-2-carboxamide] |
| – | – | – | – | C (C ≤ 35) | C (C ≤ 35) | C (C ≤ 35) | ≤ 35 | CCC(=O)N1CCN(c2nc(NCCC(=O)N(C)CCOCCOc3cc(-c4scnc4C)ccc3CNC(=O)[C@@H]3C[C@@H](O)CN3C(=O)[C@H](c3cc(C)no3)C(C)C)nc3c(F)c(-c4cc(O)cc5ccccc45)c(Cl)cc23)CC1 [compound 331, (2S,4R)-N-(2-(2-(2-(3-((6-chloro-8-fluoro-7-(3-hydroxynaphthalen-1-yl)-4-(4-propionylpiperazin-1-yl)quinazolin-2-yl)amino)-N-methylpropanamido)ethoxy)ethoxy)-4-(4-methylthiazol-5-yl)benzyl)-4-hydroxy-1-((S)-3-methyl-2-(3-methylisoxazol-5-yl)butanoyl)pyrrolidine-2-carboxamide] |
| C (Percent Degradation: C ≤ 35) | C (Percent Degradation: C ≤ 35) | C (Percent Degradation: C ≤ 35) | ≤ 35 | – | – | – | – | CN(C)C(=O)CCNc1nc(N2CCN(C(=O)/C=C/CCOCCOCCOCCOc3ccc4c(c3)C(=O)N(C3CCC(=O)NC3=O)C4=O)CC2)c2cc(Cl)c(-c3cc(O)cc4ccccc34)c(F)c2n1 (stereo not shown) [compound 174, (E)-3-((6-chloro-4-(4-(5-(2-(2-(2-((2-(2,6-dioxopiperidin-3-yl)-1,3-dioxoisoindolin-5-yl)oxy)ethoxy)ethoxy)ethoxy)pent-2-enoyl)piperazin-1-yl)-8-fluoro-7-(3-hydroxynaphthalen-1-yl)quinazolin-2-yl)amino)-N,N-dimethylpropanamide] |
| – | – | – | – | C (C ≤ 35) | C (C ≤ 35) | C (C ≤ 35) | ≤ 35 | C=CC(=O)N1CCN(c2nc(NCCC(=O)N(C)CCOCCOCCOCCOc3ccc4c(c3)C(=O)N(C3CCC(=O)NC3=O)C4=O)nc3c(F)c(-c4cc(O)cc5ccccc45)c(Cl)cc23)CC1 (stereo not shown) [compound 62, 3-((4-(4-acryloylpiperazin-1-yl)-6-chloro-8-fluoro-7-(3-hydroxynaphthalen-1-yl)quinazolin-2-yl)amino)-N-(2-(2-(2-(2-((2-(2,6-dioxopiperidin-3-yl)-1,3-dioxoisoindolin-5-yl)oxy)ethoxy)ethoxy)ethoxy)ethyl)-N-methylpropanamide] |
| – | – | – | – | C (C ≤ 35) | C (C ≤ 35) | C (C ≤ 35) | ≤ 35 | CCC(=O)N1CCN(c2nc(NCCC(=O)N(C)CCOCCOCCOCCNc3cccc4c3C(=O)N(C3CCC(=O)NC3=O)C4=O)nc3c(F)c(-c4cc(O)cc5ccccc45)c(Cl)cc23)CC1 (stereo not shown) [compound 44] |
| – | – | – | – | C (C ≤ 35) | C (C ≤ 35) | C (C ≤ 35) | ≤ 35 | CCC(=O)N1CCN(c2nc(NCCC(=O)N(C)CCOCCOc3ccc4c(c3)C(=O)N(C3CCC(=O)NC3=O)C4=O)nc3c(F)c(-c4cc(O)cc5ccccc45)c(Cl)cc23)CC1 (stereo not shown) [compound 47, 3-((6-chloro-8-fluoro-7-(3-hydroxynaphthalen-1-yl)-4-(4-propionylpiperazin-1-yl)quinazolin-2-yl)amino)-N-(2-(2-((2-(2,6-dioxopiperidin-3-yl)-1,3-dioxoisoindolin-5-yl)oxy)ethoxy)ethyl)-N-methylpropanamide] |
| C (Percent Degradation: C ≤ 35) | C (Percent Degradation: C ≤ 35) | C (Percent Degradation: C ≤ 35) | ≤ 35 | – | – | – | – | C=CC(=O)N1CCN(c2nc(NCCC(=O)N(C)CCOCCOCCOCCNC(=O)c3ccc(NC(=O)[C@@H]4N[C@@H](CC(C)(C)C)[C@](C#N)(c5ccc(Cl)cc5F)[C@H]4c4cccc(Cl)c4F)c(OC)c3)nc3c(F)c(-c4cc(O)cc5ccccc45)c(Cl)cc23)CC1 [compound 303, (2R,3S,4R,5S)-N-(4-((15-((4-(4-acryloylpiperazin-1-yl)-6-chloro-8-fluoro-7-(3-hydroxynaphthalen-1-yl)quinazolin-2-yl)amino)-12-methyl-13-oxo-3,6,9-trioxa-12-azapentadecyl)carbamoyl)-2-methoxyphenyl)-3-(3-chloro-2-fluorophenyl)-4-(4-chloro-2-fluorophenyl)-4-cyano-5-neopentylpyrrolidine-2-carboxamide] |
